Measured values taken from publication PMC11111691, “Cystine-knot peptide inhibitors of HTRA1 bind to a cryptic pocket within the active site region” (Nature Communications, 2024).
“Also recorded” adds a separate entry of the source. Positions of bridges follow the written chain, without caps; N, C: chain ends. Residues, ends and D or L forms follow the SMILES beside them. No end group written: not given here.

Experiments:
HTRA1^FL = biological target: T1, HTRA1^FL (Homo sapiens, UniProt Q92743); assay: HTRA1^FL enzyme inhibition assay with synthetic substrate H2-OPT; type: biochemical
T1 construct: Human full-length HTRA1 (HTRA1^FL, Q23-P480); made in house; host or cells: Trichoplusia ni cells
Description: (§1) Assays with the fluorescence-quenched synthetic substrate Mca-IRRVSYSFK(Dnp)K (H2-OPT)[38],[60] were carried out essentially as described. CKP stock solutions in DMSO were diluted in TNC buffer (dilution series for IC50 determinations, or final concentration of 2 µM for selectivity assay or as indicated for HTRA1/4 mutants) and incubated with enzymes in 96-well black optical bottom plates for 60 min at 37 °C. For selectivity experiments we used the 7mer-ABP as inhibitor, which was incubated with the proteases for 15 min at 37 °C. A 10 mM stock solution of H2-OPT in DMSO was diluted with water, prewarmed at 37 °C and then added to the CKP-enzyme mixtures. The final concentrations in the reaction mixtures were: 1 nM HTRA1^FL, 3 nM HTRA1^PD/PDZ, 1 nM HTRA1^PD, 1 nM HTRA2^PD/PDZ, 3 nM HTRA3^FL, 60 nM HTRA3^PD/PDZ, 6 nM HTRA4^FL, 1 µM HTRA4^PD/PDZ, 1 nM mouse HTRA1^PD, 25 nM HTRA1^PD-A202Y, 1 µM HTRA4^PD/PDZ-Y200A, 0.5 mM 7mer-ABP, 5 µM H2-OPT, and 0.25% DMSO. The kinetics of substrate cleavage was measured at 37 °C on a SpectraMax M5 microplate reader with excitation of 328 nm and emission of 393 nm. The determined initial rates of cleavage were expressed as percent of control (DMSO control) after subtracting the baseline rates (without enzyme). IC50 values were determined by Sigmoidal 4PL modeling of multiple data points from serial dilutions of CKPs using Prism 9 software (GraphPad). For selectivity assays with HTRA1-4^PD/PDZ constructs, the specific activities of the enzymes and enzyme:CKP inhibitor ratios were as follows: HTRA1^PD/PDZ, 12560 mRFU/min/nM – 1:667; HTRA2^PD/PDZ, 32300 mRFU/min/nM – 1:2000; HTRA3^PD/PDZ, 962 mRFU/min/nM – 1:33; HTRA4^PD/PDZ, 18 mRFU/min/nM – 1:2.

HTRA1^PD(SA) = biological target: T2, HTRA1^PD(SA) (Homo sapiens, UniProt Q92743, S328A); assay: SPR binding kinetics to HTRA1^PD(SA); conditions: mean ± S.D. of three or more independent experiments
T2 construct: The protease domains of human HTRA1 (HTRA1^PD; D161-K379); made in house; host or cells: E. coli
Description: Surface plasmon resonance (SPR) experiments were performed using a Biacore S200 instrument at 25 °C. His-tagged HTRA proteins were captured on a CM5 sensor chip using the His-capture kit (GE Healthcare). Protein concentrations used for immobilization were as follows; HTRA1^PD(SA), HTRA1^PD and HTRA1^PD-ABP 2 µg/ml with 60-s injections at 10 µl/min, HTRA2^PD/PDZ, HTRA3^PD/PDZ, and HTRA4^PD/PDZ 4 µg/ml with 60-s injections at 10 µl/min. Approximate immobilization levels of HTRA proteins were as follows; HTRA1^PD(SA) 700 RU, HTRA1^PD 900 RU, HTRA1^PD-ABP 900 RU, HTRA2^PD/PDZ 500 RU, HTRA3^PD/PDZ 500 RU, HTRA4^PD/PDZ 500 RU. All CKPs were prepared in HBS-EP buffer (0.01 M HEPES pH 7.4, 0.15 M NaCl, 3 mM EDTA, 0.005% v/v Surfactant P20). All CKP concentrations were injected for 120 s at a flow rate of 30 μl/min. A reference channel was subtracted from the HTRA-captured channel.
Binding kinetics of peptides to HTRA1^PD(SA) were determined by flowing six serial three-fold dilutions of peptide over the HTRA1^PD(SA) immobilized surface using a single cycle kinetics model. CKP maximum concentrations were as follows: 1A7, 1A8, 1C10, 2D5, and 3A7, 300 nM; 1G10-ENI and 1D3-ENI, 100 nM; 3B3, 3000 nM; and CPI, 10,000 nM. Data were analyzed using GE BIA evaluation software using a 1:1 Langmuir binding model. The KD values, calculated from the determined kon and koff values, were the mean ± S.D. of 3–4 independent experiments.

HTRA4^PD/PDZ, HTRA4^FL = biological target: T3, HTRA4^PD/PDZ, HTRA4^FL (Homo sapiens, UniProt P83105); assay: H2-OPT selectivity assay, HTRA4; type: biochemical; conditions: 6 nM HTRA4^FL, 2 µM CKP; p<0.001 vs DMSO
T3 construct: purchased Abcam (FL form); the PD/PDZ form was made in house in E. coli ab134444
T3 sequence (P83105 32-476): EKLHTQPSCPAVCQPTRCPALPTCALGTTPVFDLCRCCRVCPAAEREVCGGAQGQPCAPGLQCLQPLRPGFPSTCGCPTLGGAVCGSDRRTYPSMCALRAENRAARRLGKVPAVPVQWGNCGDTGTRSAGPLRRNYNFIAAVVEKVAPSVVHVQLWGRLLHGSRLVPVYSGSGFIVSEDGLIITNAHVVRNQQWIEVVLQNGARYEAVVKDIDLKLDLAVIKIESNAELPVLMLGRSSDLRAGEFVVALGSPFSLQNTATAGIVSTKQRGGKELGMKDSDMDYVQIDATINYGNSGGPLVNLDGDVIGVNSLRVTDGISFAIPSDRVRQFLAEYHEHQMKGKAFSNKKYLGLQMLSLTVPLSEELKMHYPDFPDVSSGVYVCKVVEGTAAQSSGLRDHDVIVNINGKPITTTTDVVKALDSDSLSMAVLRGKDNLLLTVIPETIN
Description: as §1

CKP stability assay = type: physicochemical; conditions: chemical stability, PBS containing 0.15% DMSO, 0.3 mM (~1 mg/ml), 37 °C, LC-MS, HPLC UV 220 nm peak area normalized to DMSO peak, two independent experiments, preliminary
Description: The CKPs 1G10 and 1G10-ENI were incubated in PBS containing 0.15% DMSO at a concentration of 0.3 mM (~1 mg/ml) at 37 °C for 30 days. Samples from two independently performed experiments were frozen at −20 °C until further analysis. Thawed samples were diluted in H2O and injected into LC-MS (Agilent). From the HPLC UV trace (at 220 nm) the CKP peak area was normalized to the DMSO peak area from the same run. The values obtained from multiple HPLC runs were averaged and shown as dot plot.

[1] = SPR Biacore S200, 25 °C, single cycle kinetics, 1:1 Langmuir model
[2] = SPR, calculated from kon and koff, CPI up to 10 µM

T1 sequence (Q92743 23-480): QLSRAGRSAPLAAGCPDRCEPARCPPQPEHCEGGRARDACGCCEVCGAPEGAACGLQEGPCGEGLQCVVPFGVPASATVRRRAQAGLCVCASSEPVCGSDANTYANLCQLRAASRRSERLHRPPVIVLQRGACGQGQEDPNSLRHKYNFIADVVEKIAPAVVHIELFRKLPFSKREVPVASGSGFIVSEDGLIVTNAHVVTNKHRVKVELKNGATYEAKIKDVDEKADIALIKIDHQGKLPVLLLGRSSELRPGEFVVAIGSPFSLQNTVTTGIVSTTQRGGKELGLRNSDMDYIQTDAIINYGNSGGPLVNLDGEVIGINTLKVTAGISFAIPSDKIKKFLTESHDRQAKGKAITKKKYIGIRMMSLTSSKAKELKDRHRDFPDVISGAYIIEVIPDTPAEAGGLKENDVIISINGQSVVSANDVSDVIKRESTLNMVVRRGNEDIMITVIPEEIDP
T2 sequence (Q92743 161-379 S328A): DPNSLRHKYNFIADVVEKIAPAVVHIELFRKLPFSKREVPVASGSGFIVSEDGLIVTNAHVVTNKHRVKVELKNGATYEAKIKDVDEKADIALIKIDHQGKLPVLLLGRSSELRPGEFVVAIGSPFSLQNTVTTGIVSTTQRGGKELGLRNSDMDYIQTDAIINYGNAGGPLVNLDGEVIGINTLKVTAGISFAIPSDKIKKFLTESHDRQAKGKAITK

CC[C@H](C)[C@H](NC(=O)[C@H](CCC(N)=O)NC(=O)[C@H](CCCNC(=N)N)NC(=O)[C@H](CC(C)C)NC(=O)CNC(=O)[C@H](Cc1c[nH]c2ccccc12)NC(=O)CNC(=O)[C@@H]1CSSC[C@@H]2NC(=O)[C@H](CC(=O)O)NC(=O)[C@H](CC(=O)O)NC(=O)[C@H](Cc3c[nH]cn3)NC(=O)[C@H]([C@@H](C)O)NC(=O)[C@H](CCCCN)NC(=O)[C@@H]3CSSC[C@H](NC(=O)[C@H]([C@@H](C)O)NC(=O)[C@H](CCC(N)=O)NC(=O)[C@H](CSSC[C@H](NC(=O)[C@@H](NC(=O)[C@@H]4CCCN4C(=O)[C@H](CC(=O)O)NC(=O)[C@H](C)NC(=O)[C@@H](N)Cc4c[nH]cn4)[C@@H](C)CC)C(=O)N[C@@H](CC(N)=O)C(=O)N[C@@H](CCCCN)C(=O)N4CCC[C@H]4C(=O)N3)NC(=O)[C@H](Cc3ccccc3)NC(=O)[C@H](Cc3c[nH]c4ccccc34)NC(=O)[C@H](C)NC(=O)CNC(=O)[C@H](CO)NC2=O)C(=O)N[C@@H](Cc2ccc(O)cc2)C(=O)N[C@@H](Cc2ccc(O)cc2)C(=O)N[C@@H](C)C(=O)N[C@@H]([C@@H](C)O)C(=O)N[C@@H](Cc2c[nH]c3ccccc23)C(=O)N[C@@H](CO)C(=O)N1)C(=O)N[C@@H](CC(=O)O)C(N)=O [1A8] (H-HADPICNKPCKTHDDCSGAWFCQTCYYATWSCGWGLRQID-NH2; disulfide 6-22, 10-25, 16-32)
IC50 (HTRA1^FL): 1.9 ± 0.15 nM | koff (HTRA1^PD(SA); [1]): 0.5 ± 0.1 s-1 x10-4 | kon (HTRA1^PD(SA); [1]): 8.2 ± 3.5 M-1 s-1 x104 | Kd (HTRA1^PD(SA); [2]): 0.66 ± 0.42 nM | Reduction of HTRA4^FL activity, H2-OPT (HTRA4^PD/PDZ, HTRA4^FL): 13%

CC[C@H](C)[C@H](NC(=O)[C@@H]1CCCN1C(=O)[C@H](CC(=O)O)NC(=O)[C@H](C)NC(=O)[C@@H](N)Cc1c[nH]cn1)C(=O)N[C@H]1CSSC[C@@H]2NC(=O)[C@H](Cc3ccccc3)NC(=O)[C@H](Cc3c[nH]c4ccccc34)NC(=O)[C@H](C)NC(=O)CNC(=O)[C@H](CO)NC(=O)[C@@H]3CSSC[C@@H](C(=O)NCC(=O)N4CCC[C@H]4C(=O)N[C@@H](Cc4ccc(O)cc4)C(=O)N[C@H](C(=O)NCC(N)=O)C(C)C)NC(=O)[C@H]([C@@H](C)O)NC(=O)[C@H](CCCNC(=N)N)NC(=O)[C@H](C)NC(=O)[C@H](CO)NC(=O)[C@H](CC(N)=O)NC(=O)[C@H](Cc4c[nH]c5ccccc45)NC(=O)[C@H](CSSC[C@H](NC(=O)[C@@H]4CCCN4C(=O)[C@H](CCCCN)NC(=O)[C@H](CC(N)=O)NC1=O)C(=O)N[C@@H](CCCCN)C(=O)N[C@@H]([C@@H](C)O)C(=O)N[C@@H](Cc1c[nH]cn1)C(=O)N[C@@H](CC(=O)O)C(=O)N[C@@H](CC(=O)O)C(=O)N3)NC(=O)[C@H](C)NC(=O)[C@H](CCC(N)=O)NC2=O [CPI, reference compound] (H-HADPICNKPCKTHDDCSGAWFCQACWNSARTCGPYVG-NH2; disulfide 6-22, 10-25, 16-32)
Inhibition of HTRA1^FL activity (inhibition curves) (HTRA1^FL; H2-OPT substrate, Fig. 1b): no activity | KD (HTRA1^PD(SA); [2]): No binding

CC[C@H](C)[C@H](NC(=O)[C@H](CCC(N)=O)NC(=O)[C@H](CCCNC(=N)N)NC(=O)[C@H](CC(C)C)NC(=O)CNC(=O)[C@H](Cc1c[nH]c2ccccc12)NC(=O)CNC(=O)[C@@H]1CSSC[C@@H]2NC(=O)[C@H](CC(=O)O)NC(=O)[C@H](CC(=O)O)NC(=O)[C@H](Cc3c[nH]cn3)NC(=O)[C@H]([C@@H](C)O)NC(=O)[C@H](CCCCN)NC(=O)[C@@H]3CSSC[C@H](NC(=O)[C@H]([C@@H](C)O)NC(=O)[C@H](CCC(N)=O)NC(=O)[C@H](CSSC[C@H](NC(=O)[C@@H](NC(=O)[C@@H]4CCCN4C(=O)[C@H](CC(=O)O)NC(=O)[C@H](C)NC(=O)[C@@H](N)Cc4c[nH]cn4)[C@@H](C)CC)C(=O)N[C@@H](CC(N)=O)C(=O)N[C@@H](CCCCN)C(=O)N4CCC[C@H]4C(=O)N3)NC(=O)[C@H](Cc3ccccc3)NC(=O)[C@H](Cc3c[nH]c4ccccc34)NC(=O)[C@H](C)NC(=O)CNC(=O)[C@H](CO)NC2=O)C(=O)N[C@@H](Cc2ccc(O)cc2)C(=O)N[C@@H](CC(C)C)C(=O)N[C@@H](C)C(=O)N[C@@H]([C@@H](C)O)C(=O)N[C@@H](Cc2c[nH]c3ccccc23)C(=O)N[C@@H](CO)C(=O)N1)C(=O)N[C@@H](CC(=O)O)C(N)=O [Y27L] (H-HADPICNKPCKTHDDCSGAWFCQTCYLATWSCGWGLRQID-NH2; disulfide 6-22, 10-25, 16-32)
IC50 (HTRA1^FL): 49.9 ± 3.8 nM

YPVDPICNKPCKTHDDCSGAWFCQTCYYATWSCGWGLRQID-NH2 (disulfide 7-23, 11-26, 17-33) [1G10]
Stability: intact peptide after 30 days (CKP stability assay): no change in peptide mass at 30 days; also recorded: highly stable
